Laboratory results from patent US20080242636A1, “MODIFIED CYCLODEXTRIN SULFATE-71 (TERIGYN) AS A MICROBICIDE AGENT” (priority 2007, published 2008).

Key:
[1] = system: HIV; settings: as described by Tanabe Seiyaku 1991; cited from earlier work
[2] = system: HIV-1 R5 viruses; assay: TZM-bL luciferase assay, R5 viruses; format: cell-based; settings: TZM-bL cells, 48 hr at 37 C
Procedure: (§1) To further determine the inhibition of Terygyn of either CXCR4 or R5 viruses in cervical explants, various concentrations of Terygyn were cultured in TZM-bL cells with TCID50 HIV-1. TZM-bL are X4 positive HeLa cell clones that have been engineered to express CD4 and CCR5 and integrates a reporter gene for firefly luciferase and E coli b-galactosidase. Virus and drugs were left in culture for 48 hr at 37 C and luciferase assay determined thereafter.

[3] = rats, safety trials; cited from earlier work
[4] = system: HIV-1 X4 viruses; assay: TZM-bL luciferase assay, X4 viruses; format: cell-based; settings: TZM-bL cells, 48 hr at 37 C
Procedure: as §1

[5] = system: LAV-1, a laboratory strain of HIV-1; assay: p24 antigen anti-HIV assay in pretreated PBMC and MT4 cells infected with LAV-1; format: cell-based
Procedure: (§2) Primary peripheral blood mononuclear cells and a MT4 cell line were pretreated with varying concentrations of terygyn before infection with LAV-1, a laboratory strain of HIV-1. As a control, a set of similar cells were not pretreated with the compound. Anti-HIV activity was measured using p24 antigen testing. Terygyn achieved total HIV inhibition (IC100) at 1 ug/ml. Cell toxicity was not observed till the concentration of terygyn was 10 ug/ml. […] Terygyn's ability to inhibit HIV at lower concentration makes it a more attractive compound for safe clinical use.

[6] = system: Primary peripheral blood mononuclear cells and MT4 cell line; format: cell-based
Procedure: as §2

[7] = IC50 comparison with literature value
[8] = PBMC and MT4 pretreated, LAV-1, p24 antigen

SMILES: O=S(=O)([O-])OC[C@@H]1O[C@@H]2O[C@H]3[C@H](OS(=O)(=O)[O-])[C@H](OCc4ccccc4)[C@@H](O[C@H]4[C@H](OS(=O)(=O)[O-])[C@H](OCc5ccccc5)[C@@H](O[C@H]5[C@H](OS(=O)(=O)[O-])[C@H](OCc6ccccc6)[C@@H](O[C@H]6[C@H](OS(=O)(=O)[O-])[C@H](OCc7ccccc7)[C@@H](O[C@H]7[C@H](OS(=O)(=O)[O-])[C@H](OCc8ccccc8)C(O[C@H]8[C@H](OS(=O)(=O)[O-])[C@H](OCc9ccccc9)C(O[C@H]1[C@H](OS(=O)(=O)[O-])[C@@H]2OCc1ccccc1)O[C@H]8COS(=O)(=O)[O-])O[C@H]7COS(=O)(=O)[O-])O[C@H]6COS(=O)(=O)[O-])O[C@H]5COS(=O)(=O)[O-])O[C@H]4COS(=O)(=O)[O-])O[C@H]3COS(=O)(=O)[O-].[Na+].[Na+].[Na+].[Na+].[Na+].[Na+].[Na+].[Na+].[Na+].[Na+].[Na+].[Na+].[Na+].[Na+] [Terygyn, Tetradecasodium heptakis (2-0 benzyl)β-cyclodextrin tetradecasulfate]
- anti-HIV activity in vitro [1]: 0.98 µg/mL
- IC50 R5 viruses [2]: 0.13 ± 0.05 µg/mL
- tolerability [3]: 125 mg/kg/day
- IC50 X4 viruses [4]: 0.88 ± 1.2 µg/mL
- fold more potent than PRO 2000 [5, 7]: fifty-fold
- fold more potent than Ushercell [5, 7]: 100 fold
- in vitro antiviral activity IC50 [5, 8]: 0.5 µg/mL
- total HIV inhibition (IC100) [5, 8]: 1 µg/mL
- concentration until which cell toxicity was not observed [6]: 10000 ng/mL
